Test results from ChEMBL document CHEMBL1141976, “Discovery of 2,3,5-trisubstituted pyridine derivatives as potent Akt1 and Akt2 dual inhibitors” (Bioorg Med Chem Lett, 2005).

Columns and labels:
[1] = molecular target: RAC-gamma serine/threonine-protein kinase (Homo sapiens, UniProt Q9Y243); assay: Inhibitory concentration against Akt3 kinase
[2] = molecular target: RAC-alpha serine/threonine-protein kinase (Homo sapiens, UniProt P31749); assay: Inhibitory concentration against Akt1 kinase
[3] = Inhibitory concentration against Akt2 kinase; set-up: species or system Homo sapiens

Sequence of RAC-gamma serine/threonine-protein kinase (Q9Y243 whole entry, looked up): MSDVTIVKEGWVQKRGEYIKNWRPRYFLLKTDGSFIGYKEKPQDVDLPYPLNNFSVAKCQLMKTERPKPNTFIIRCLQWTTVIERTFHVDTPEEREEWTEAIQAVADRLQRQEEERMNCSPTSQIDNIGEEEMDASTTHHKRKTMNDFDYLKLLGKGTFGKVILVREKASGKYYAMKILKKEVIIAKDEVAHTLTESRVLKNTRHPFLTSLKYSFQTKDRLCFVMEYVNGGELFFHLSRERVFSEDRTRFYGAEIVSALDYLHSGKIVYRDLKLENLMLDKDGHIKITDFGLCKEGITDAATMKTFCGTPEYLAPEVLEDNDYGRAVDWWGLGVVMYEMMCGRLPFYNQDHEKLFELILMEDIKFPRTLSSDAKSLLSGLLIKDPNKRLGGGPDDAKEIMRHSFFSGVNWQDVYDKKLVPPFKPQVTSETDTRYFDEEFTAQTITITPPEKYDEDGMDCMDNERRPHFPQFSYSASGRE
Sequence of RAC-alpha serine/threonine-protein kinase (P31749 whole entry): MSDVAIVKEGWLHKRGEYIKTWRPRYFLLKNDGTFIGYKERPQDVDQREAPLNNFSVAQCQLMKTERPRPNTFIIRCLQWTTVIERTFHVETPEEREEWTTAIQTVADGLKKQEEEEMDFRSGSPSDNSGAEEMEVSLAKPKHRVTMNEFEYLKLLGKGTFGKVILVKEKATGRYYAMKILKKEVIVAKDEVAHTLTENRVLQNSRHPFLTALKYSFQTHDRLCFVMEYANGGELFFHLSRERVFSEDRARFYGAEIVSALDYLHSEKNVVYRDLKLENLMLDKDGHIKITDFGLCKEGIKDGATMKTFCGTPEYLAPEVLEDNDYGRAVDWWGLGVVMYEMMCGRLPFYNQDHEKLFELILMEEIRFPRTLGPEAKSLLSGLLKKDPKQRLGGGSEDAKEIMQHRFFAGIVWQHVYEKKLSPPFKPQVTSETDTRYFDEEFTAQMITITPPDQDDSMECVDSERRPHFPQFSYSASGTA

SMILES	IC50 [1] [µM]	IC50 [2] [µM]	IC50 [3] [µM]
Fc1ccc2[nH]c(C3CCN(Cc4ccc(-c5ncc(-c6nn[nH]n6)cc5-c5ccccc5)cc4)CC3)nc2c1	> 50	0.239	1.72
Oc1nc2ccccc2n1C1CCN(Cc2ccc(-c3cc4ccccc4nc3-c3ccccc3)cc2)CC1	> 50	3.14	33.7
N#Cc1cnc(-c2ccc(CN3CCC(n4c(=O)[nH]c5ccccc54)CC3)cc2)c(-c2ccccc2)c1	> 50	0.762	3.14
Cn1nnnc1-c1cnc(-c2ccc(CN3CCC(n4c(=O)[nH]c5ccccc54)CC3)cc2)c(-c2ccccc2)c1		1.77	0.613
Cc1nc2ccccc2n1C1CCN(Cc2ccc(-c3ncc(-c4nn[nH]n4)cc3-c3ccccc3)cc2)CC1	> 50	6.91	2.75
c1ccc(-c2cc(-c3nn[nH]n3)cnc2-c2ccc(CNCc3ccc(-c4csnn4)cc3)cc2)cc1	> 50	0.177	0.248
Oc1nc2ccccc2n1C1CCN(Cc2ccc(-c3nc4ccccc4cc3-c3ccccc3)cc2)CC1	> 50	0.365	1.21
O=c1[nH]c2ccccc2n1C1CCN(Cc2ccc(-c3ncc(-c4nnn[nH]4)cc3-c3ccccc3)cc2)CC1	> 50	0.273	0.157
N#Cc1cnc(-c2ccc(CN3CCC(n4cnc5ccccc54)CC3)cc2)c(-c2ccccc2)c1	> 50	4.4	13
N#Cc1cnc(-c2ccc(CNCc3ccc(-c4csnn4)cc3)cc2)c(-c2ccccc2)c1	> 50	1.29	4.81
Cc1nc2ccccc2n1C1CCN(Cc2ccc(-c3ncc(C#N)cc3-c3ccccc3)cc2)CC1	> 50	7.41	18.4
c1ccc(-c2cc(-c3nn[nH]n3)cnc2-c2ccc(CN3CCC(c4nc5ccccc5[nH]4)CC3)cc2)cc1	> 50	3.32	1.5
c1ccc(-c2cc(-c3nn[nH]n3)cnc2-c2ccc(CN3CCC(n4cnc5ccccc54)CC3)cc2)cc1	> 50	4.24	1.96
Cc1ccc2[nH]c(C3CCN(Cc4ccc(-c5ncc(C#N)cc5-c5ccccc5)cc4)CC3)nc2c1	> 50	2.87	11.4
N#Cc1cnc(-c2ccc(CN3CCC(c4nc5cc(F)ccc5[nH]4)CC3)cc2)c(-c2ccccc2)c1	> 50	0.865	6.65
N#Cc1cnc(-c2ccc(CN3CCC(c4nc5ccccc5[nH]4)CC3)cc2)c(-c2ccccc2)c1	> 50	1.47	8.74
Cc1ccc2[nH]c(C3CCN(Cc4ccc(-c5ncc(-c6nn[nH]n6)cc5-c5ccccc5)cc4)CC3)nc2c1	> 50	0.763	0.422
